Test results reported in US7615523B2, “Lens care product containing dexpanthenol” (Novartis AG, priority 2006, dated 2009).

Assays:
[1] = stabilisation of the lachrymal film when inserting contact lenses; conditions: when/after inserting the contact lenses
Source text: Dexpanthenol, an alcohol of pantothenic acid, also called Provitamin B5, D-pantothenyl alcohol or D-panthenol, has been used for a long time for healing wounds or in the field of medicinal skin care. […] Vortex motion of the lachrymal liquid can occur through the insertion of contact lenses, namely because of mechanical eruption or through surface-active substances optionally present in the contact lens solution and can lead to severe loss of the aqueous lachrymal layer. […] This guards against the appearance of dryness, which can lead to a reduced lachrymal film.
The addition of D-sorbit to adjust the tonicity of contact lens care products is known. GB 2,205,175 and U.S. Pat. No. 3,888,782 describe sorbit as a carrier material for the preparation of powder mixtures for contact lens care products. […] This guards against the appearance of dryness, which can lead to a reduced lachrymal film. […] Negative effects caused by surface-active substances and preservatives are reduced and the contact lenses are prevented from drying out.

[2] = cytotoxicity studies on addition of dexpanthenol and D-sorbit; assay type: cell-based; conditions: addition of sorbit to compositions containing antimicrobial compounds, e.g. PHMB
[3] = antimicrobial (microbiological) efficacy of contact lens care solutions; conditions: addition of sorbit to contact lens care compositions

| Compound | lachrymal film stabilisation [1] | toxicity [2] | effect on microbiological efficacy of antimicrobial compounds present, e.g. PHMB [3] |
| --- | --- | --- | --- |
| CC(C)(CO)[C@@H](O)C(=O)NCCCO [dexpanthenol] | stabilises the lachrymal film | – | – |
| OC[C@@H](O)[C@@H](O)[C@H](O)[C@@H](O)CO [sorbit, D-sorbit] | – | without resulting in negative effects as regards toxicity | substantially increases the microbiological efficacy |
